Tests used:
Assay in all cases: cells
Assay type in all cases: functional, cell-based, Homo sapiens
[1] = tested on: VA-ES-BJ; conditions: Homo sapiens, VA-ES-BJ;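 further: growth inhibition of the VA-ES-BJ cell line, read out by a cell viability assay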
Description: SANGER: Inhibition of human VA-ES-BJ cell growth in a cell viability assay.

[2] = tested on: MMAC-SF; conditions: Homo sapiens, MMAC-SF;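 further: growth inhibition of human MMAC-SF cells, read out with a cell viability assay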
Description: SANGER: Inhibition of human MMAC-SF cell growth in a cell viability assay.

[3] = tested on: LB2241-RCC; conditions: Homo sapiens, LB2241-RCC;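 further: cell viability assay measuring how strongly the cultured human renal carcinoma line is prevented from growing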
Description: SANGER: Inhibition of human LB2241-RCC cell growth in a cell viability assay.

[4] = tested on: KGN; conditions: Homo sapiens, KGN;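 further: growth inhibition of KGN cells, read out with a cell viability assay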
Description: SANGER: Inhibition of human KGN cell growth in a cell viability assay.

[5] = tested on: CGTH-W-1; conditions: Homo sapiens, CGTH-W-1;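 further: growth inhibition of human CGTH-W-1 cells measured by cell viability assay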
Description: SANGER: Inhibition of human CGTH-W-1 cell growth in a cell viability assay.

[6] = tested on: NCI-H1299; conditions: Homo sapiens, NCI-H1299;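 further: growth inhibition of human NCI-H1299 cells, read out by a cell viability assay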
Description: SANGER: Inhibition of human NCI-H1299 cell growth in a cell viability assay.

[7] = tested on: SW 962; conditions: Homo sapiens, SW 962;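 further: growth inhibition of human SW962 cells, read out by a cell viability assay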
Description: SANGER: Inhibition of human SW962 cell growth in a cell viability assay.

[8] = tested on: KU812 cell line; conditions: Homo sapiens, KU812;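 further: growth inhibition of KU812 cells, read out with a cell viability assay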
Description: SANGER: Inhibition of human KU812 cell growth in a cell viability assay.

[9] = tested on: NCI-H1838; conditions: Homo sapiens, NCI-H1838;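 further: growth inhibition of NCI-H1838 cells, determined with a cell viability readout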
Description: SANGER: Inhibition of human NCI-H1838 cell growth in a cell viability assay.

[10] = tested on: LB831-BLC; conditions: Homo sapiens, LB831-BLC;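 further: growth inhibition of LB831-BLC cells, read out with a cell viability assay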
Description: SANGER: Inhibition of human LB831-BLC cell growth in a cell viability assay.

[11] = tested on: HH; conditions: Homo sapiens, HH
Description: SANGER: Inhibition of human HH cell growth in a cell viability assay.

[12] = tested on: KM12; conditions: Homo sapiens, KM12;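 further: KM12 cell growth inhibition, read out with a cell viability assay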
Description: SANGER: Inhibition of human KM12 cell growth in a cell viability assay.

[13] = tested on: HC-1; conditions: Homo sapiens, HC-1;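 further: growth inhibition of HC-1 cells measured by a cell viability assay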
Description: SANGER: Inhibition of human HC-1 cell growth in a cell viability assay.

[14] = tested on: KP-N-YS; conditions: Homo sapiens, KP-N-YS;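 further: cell viability assay measuring inhibition of cell line growth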
Description: SANGER: Inhibition of human KP-N-YS cell growth in a cell viability assay.

[15] = tested on: ONS-76; conditions: Homo sapiens, ONS-76;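 further: growth inhibition of human ONS-76 cells, read out with a cell viability assay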
Description: SANGER: Inhibition of human ONS-76 cell growth in a cell viability assay.

[16] = tested on: D-392MG; conditions: Homo sapiens, D-392MG
[17] = tested on: GB-1; conditions: Homo sapiens, GB-1;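 further: growth of GB-1 cells judged by a viability assay, IC50 marks the concentration inhibiting growth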
Description: SANGER: Inhibition of human GB-1 cell growth in a cell viability assay.

[18] = tested on: NKM-1; conditions: Homo sapiens, NKM-1;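 further: growth inhibition of NKM-1 cells, read out with a cell viability assay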
Description: SANGER: Inhibition of human NKM-1 cell growth in a cell viability assay.

[19] = tested on: MPP-89; conditions: Homo sapiens, MPP-89;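 further: growth inhibition of human MPP-89 cells, read out with a cell viability assay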
Description: SANGER: Inhibition of human MPP-89 cell growth in a cell viability assay.

[20] = tested on: ML-2; conditions: Homo sapiens, ML-2;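 further: growth inhibition of ML-2 cells, measured with a cell viability readout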
Description: SANGER: Inhibition of human ML-2 cell growth in a cell viability assay.

[21] = tested on: ALL-PO; conditions: Homo sapiens, ALL-PO;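 further: growth inhibition of ALL-PO cells, read out by a cell viability assay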
Description: SANGER: Inhibition of human ALL-PO cell growth in a cell viability assay.

[22] = tested on: SK-UT-1; conditions: Homo sapiens, SK-UT-1;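 further: growth inhibition of SK-UT-1 cells, measured by a cell viability assay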
Description: SANGER: Inhibition of human SK-UT-1 cell growth in a cell viability assay.

[23] = tested on: BE-13; conditions: Homo sapiens, BE-13;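 further: growth inhibition of human BE-13 cells, measured with a cell viability assay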
Description: SANGER: Inhibition of human BE-13 cell growth in a cell viability assay.

[24] = tested on: NCI-H1581; conditions: Homo sapiens, NCI-H1581;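 further: cell growth inhibition read out by a viability assay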
Description: SANGER: Inhibition of human NCI-H1581 cell growth in a cell viability assay.

[25] = tested on: CCRF-CEM; conditions: Homo sapiens, CCRF-CEM;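 further: inhibition of CCRF-CEM cell growth, measured by a cell viability assay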
Description: SANGER: Inhibition of human CCRF-CEM cell growth in a cell viability assay.

[26] = tested on: NMC-G1; conditions: Homo sapiens, NMC-G1;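 further: growth inhibition of the NMC-G1 cell line, measured with a cell viability read-out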
Description: SANGER: Inhibition of human NMC-G1 cell growth in a cell viability assay.

[27] = tested on: Becker; conditions: Homo sapiens, Becker;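 further: growth inhibition of Becker cells, read out with a cell viability assay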
Description: SANGER: Inhibition of human Becker cell growth in a cell viability assay.

[28] = tested on: EW-18; conditions: Homo sapiens, EW-18;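 further: growth inhibition of EW-18 cells, read out by a cell viability assay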
Description: SANGER: Inhibition of human EW-18 cell growth in a cell viability assay.

[29] = tested on: HOP-62; conditions: Homo sapiens, HOP-62;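 further: cell growth inhibition determined with a viability assay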
Description: SANGER: Inhibition of human HOP-62 cell growth in a cell viability assay.

[30] = tested on: MHH-NB-11; conditions: Homo sapiens, MHH-NB-11;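 further: growth inhibition of human MHH-NB-11 cells, read out by a cell viability assay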
Description: SANGER: Inhibition of human MHH-NB-11 cell growth in a cell viability assay.

[31] = tested on: ES8; conditions: Homo sapiens, ES8;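 further: growth inhibition of human ES8 cells, read out with a cell viability assay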
Description: SANGER: Inhibition of human ES8 cell growth in a cell viability assay.

[32] = tested on: KY821; conditions: Homo sapiens, KY821;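 further: growth inhibition of human KY821 cells, read out by a cell viability assay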
Description: SANGER: Inhibition of human KY821 cell growth in a cell viability assay.

[33] = tested on: TGBC24TKB; conditions: Homo sapiens, TGBC24TKB;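 further: growth inhibition of human TGBC24TKB cells, read out with a cell viability assay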
Description: SANGER: Inhibition of human TGBC24TKB cell growth in a cell viability assay.

[34] = tested on: NCI-H526; conditions: Homo sapiens, NCI-H526;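 further: growth inhibition of the human NCI-H526 cell line, measured by a cell viability assay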
Description: SANGER: Inhibition of human NCI-H526 cell growth in a cell viability assay.

[35] = tested on: KLE; conditions: Homo sapiens, KLE;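 further: growth inhibition of human KLE cells, read out with a cell viability assay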
Description: SANGER: Inhibition of human KLE cell growth in a cell viability assay.

[36] = tested on: KALS-1; conditions: Homo sapiens, KALS-1;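 further: growth inhibition of KALS-1 cells, determined with a cell viability assay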
Description: SANGER: Inhibition of human KALS-1 cell growth in a cell viability assay.

[37] = tested on: LB373-MEL-D; conditions: Homo sapiens, LB373-MEL-D;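 further: growth inhibition of the cell line, read out in a cell viability assay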
Description: SANGER: Inhibition of human LB373-MEL-D cell growth in a cell viability assay.

[38] = tested on: EOL1; conditions: Homo sapiens, EOL1;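 further: growth inhibition of EoL-1 cells, read out by a cell viability assay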
Description: SANGER: Inhibition of human EoL-1-cell cell growth in a cell viability assay.

[39] = tested on: K562; conditions: Homo sapiens, K562
Description: SANGER: Inhibition of human K-562 cell growth in a cell viability assay.

[40] = tested on: IST-SL1; conditions: Homo sapiens, IST-SL1;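 further: growth inhibition of human IST-SL1 cells, read out with a cell viability assay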
Description: SANGER: Inhibition of human IST-SL1 cell growth in a cell viability assay.

[41] = tested on: SK-PN-DW; conditions: Homo sapiens, SK-PN-DW;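 further: growth inhibition measured with a viability assay on these cells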
Description: SANGER: Inhibition of human SK-PN-DW cell growth in a cell viability assay.

[42] = tested on: COR-L88; conditions: Homo sapiens, COR-L88;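 further: growth inhibition of COR-L88 cells, read out with a cell viability assay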
Description: SANGER: Inhibition of human COR-L88 cell growth in a cell viability assay.

[43] = tested on: TE-5; conditions: Homo sapiens, TE-5;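 further: inhibition of cell growth, read out by a cell viability assay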
Description: SANGER: Inhibition of human TE-5 cell growth in a cell viability assay.

[44] = tested on: A101D; conditions: Homo sapiens, A101D;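 further: growth inhibition of the cell line, measured with a viability assay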
Description: SANGER: Inhibition of human A101D cell growth in a cell viability assay.

[45] = tested on: A3-KAW; conditions: Homo sapiens, A3-KAW;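 further: growth inhibition of human A3-KAW cells, read out with a cell viability assay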
Description: SANGER: Inhibition of human A3-KAW cell growth in a cell viability assay.

[46] = tested on: GI-ME-N; conditions: Homo sapiens, GI-ME-N;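 further: growth inhibition of human GI-ME-N cells, read out with a cell viability assay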
Description: SANGER: Inhibition of human GI-ME-N cell growth in a cell viability assay.

[47] = tested on: GR-ST; conditions: Homo sapiens, GR-ST
Description: SANGER: Inhibition of human GR-ST cell growth in a cell viability assay.

[48] = tested on: LB1047-RCC; conditions: Homo sapiens, LB1047-RCC;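 further: inhibition of cell growth, determined with a cell viability assay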
Description: SANGER: Inhibition of human LB1047-RCC cell growth in a cell viability assay.

Compound: Cc1cc([N+](=O)[O-])ccc1NS(=O)(=O)c1cc(Cl)ccc1Cl
- IC50 [1]: 1.23 µM
- IC50 [2]: 3.92 µM
- IC50 [3]: 2.61 µM
- IC50 [4]: 4.2 µM
- IC50 [5]: 11.9 µM
- IC50 [6]: 3.19 µM
- IC50 [7]: 4.68 µM
- IC50 [8]: 7.2 µM
- IC50 [9]: > 32 µM
- IC50 [10]: 2.1 µM
- IC50 [11]: 15.2 µM
- IC50 [12]: 5.99 µM
- IC50 [13]: 12.7 µM
- IC50 [14]: 15.9 µM
- IC50 [15]: 6.44 µM
- IC50 [16]: > 32 µM
- IC50 [17]: 2.19 µM
- IC50 [18]: 10.2 µM
- IC50 [19]: 20.1 µM
- IC50 [20]: 7.87 µM
- IC50 [21]: 2.34 µM
- IC50 [22]: 1.96 µM
- IC50 [23]: 7.53 µM
- IC50 [24]: 9.37 µM
- IC50 [25]: 7.88 µM
- IC50 [26]: 9.89 µM
- IC50 [27]: 16.5 µM
- IC50 [28]: 9.58 µM
- IC50 [29]: 5.08 µM
- IC50 [30]: 20.7 µM
- IC50 [31]: 8.95 µM
- IC50 [32]: > 32 µM
- IC50 [33]: 5.2 µM
- IC50 [34]: 28.2 µM
- IC50 [35]: 6.59 µM
- IC50 [36]: 8.54 µM
- IC50 [37]: 2.86 µM
- IC50 [38]: 4.95 µM
- IC50 [39]: 26.9 µM
- IC50 [40]: 24.4 µM
- IC50 [41]: 11.6 µM
- IC50 [42]: > 32 µM
- IC50 [43]: 6.73 µM
- IC50 [44]: 4.55 µM
- IC50 [45]: 8.78 µM
- IC50 [46]: 11.5 µM
- IC50 [47]: 10.3 µM
- IC50 [48]: 6.74 µM

Compound: COc1cccc2c1C(=O)c1c(O)c3c(c(O)c1C2=O)C[C@@](O)(C(=O)CO)C[C@@H]3O[C@H]1C[C@H](N)[C@H](O)[C@H](C)O1 [DOXORUBICIN]
- IC50 [1]: 0.0334 µM
- IC50 [2]: 0.106 µM
- IC50 [3]: 0.235 µM
- IC50 [4]: 0.00634 µM
- IC50 [5]: 0.0535 µM
- IC50 [6]: 0.0376 µM
- IC50 [7]: 0.0699 µM
- IC50 [8]: 0.0332 µM
- IC50 [9]: 0.405 µM
- IC50 [10]: 0.206 µM
- IC50 [11]: 0.241 µM
- IC50 [12]: 0.218 µM
- IC50 [13]: 0.0373 µM
- IC50 [14]: 0.218 µM
- IC50 [15]: 0.0189 µM
- IC50 [16]: 0.249 µM
- IC50 [17]: 0.213 µM
- IC50 [18]: 0.0295 µM
- IC50 [19]: 0.393 µM
- IC50 [20]: 0.135 µM
- IC50 [21]: 0.065 µM
- IC50 [22]: 0.02 µM
- IC50 [23]: 0.051 µM
- IC50 [24]: 0.981 µM
- IC50 [25]: 0.0245 µM
- IC50 [26]: 0.139 µM
- IC50 [27]: 0.522 µM
- IC50 [28]: 0.251 µM
- IC50 [29]: 0.0359 µM
- IC50 [30]: 0.22 µM
- IC50 [31]: 0.0211 µM
- IC50 [32]: > 1.02 µM
- IC50 [33]: > 1.02 µM
- IC50 [34]: 0.05 µM
- IC50 [35]: 0.175 µM
- IC50 [36]: 0.0293 µM
- IC50 [37]: 0.345 µM
- IC50 [38]: 0.0278 µM
- IC50 [39]: 0.386 µM
- IC50 [40]: 0.517 µM
- IC50 [41]: 0.0257 µM
- IC50 [42]: > 1.02 µM
- IC50 [43]: 0.0375 µM
- IC50 [44]: 0.0515 µM
- IC50 [45]: 0.0401 µM
- IC50 [46]: 0.0933 µM
- IC50 [47]: 0.255 µM
- IC50 [48]: 0.036 µM

Compound: O=C(O)c1ccc(-c2c[nH]c3ncc(-c4ccccc4)cc23)cc1C1CCCC1 [GSK-650394]
- IC50 [1]: 9.04 µM
- IC50 [2]: > 16 µM
- IC50 [3]: > 16 µM
- IC50 [4]: > 16 µM
- IC50 [5]: 2.1 µM
- IC50 [6]: 5.99 µM
- IC50 [7]: > 16 µM
- IC50 [8]: 2.19 µM
- IC50 [9]: > 16 µM
- IC50 [10]: > 16 µM
- IC50 [11]: > 16 µM
- IC50 [12]: 0.851 µM
- IC50 [13]: > 16 µM
- IC50 [14]: 4.39 µM
- IC50 [15]: 4.14 µM
- IC50 [16]: > 16 µM
- IC50 [17]: 5.96 µM
- IC50 [18]: 2.77 µM
- IC50 [19]: 9.27 µM
- IC50 [20]: > 16 µM
- IC50 [21]: 5.73 µM
- IC50 [22]: 11.8 µM
- IC50 [23]: > 16 µM
- IC50 [24]: > 16 µM
- IC50 [25]: > 16 µM
- IC50 [26]: > 16 µM
- IC50 [27]: > 16 µM
- IC50 [28]: > 16 µM
- IC50 [29]: > 16 µM
- IC50 [30]: > 16 µM
- IC50 [31]: 7.13 µM
- IC50 [32]: > 16 µM
- IC50 [33]: > 16 µM
- IC50 [34]: 6.04 µM
- IC50 [35]: > 16 µM
- IC50 [36]: > 16 µM
- IC50 [37]: > 16 µM
- IC50 [38]: 11.3 µM
- IC50 [39]: > 16 µM
- IC50 [40]: > 16 µM
- IC50 [41]: 14.2 µM
- IC50 [42]: > 16 µM
- IC50 [43]: > 16 µM
- IC50 [44]: 9.27 µM
- IC50 [45]: > 16 µM
- IC50 [46]: > 16 µM
- IC50 [47]: > 16 µM
- IC50 [48]: 6.2 µM
